Measurements from the METLIN SMRT retention time set (Domingo-Almenara et al. 2019).

Assay: gradient 5% acetonitrile 3 min, to 50% in 2 min, to 85% in 15 min, held 3 min, 100 µL/min
Conditions: column: Zorbax Extend-C18 2.1 x 50 mm; eluents: water / acetonitrile, 0.1% formic acid
Method in brief: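 Using water and acetonitrile that each contained 0.1% formic acid, mixtures of ~100 pure standards were separated at 100 μL/min on a Zorbax Extend-C18 column (2.1 × 50 mm, 1.8 μm). The HPLC fed a quadrupole time-of-flight mass spectrometer working in positive and negative ionization mode, with dead and dwell volumes of 40 μL and 900 μL. Data were acquired over 3 months. Retention time was read from computationally picked adduct peaks after manual inspection of each.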

| SMILES | RP-LC retention time |
| --- | --- |
| CC(C)c1nc2ccc(C(=O)NCCN(C)C3CCCCC3)cc2o1 | 656 s |
| Cc1ccc(C)c(CNS(=O)(=O)c2cc(-c3[nH]ncc3C(=O)N3CCCC3)oc2C)c1 | 835 s |
| CSc1ccc(-c2nc3cnccn3c2NC2CCCCC2)cc1 | 1010 s |
| C/C(=N\O)C1CC(CC(=O)O)C1(C)C (stereo unspecified) | 688 s |
| Cc1ccc(CNC(=O)C2CCN(S(=O)(=O)c3ccc4c(c3)sc(=O)n4C)CC2)cc1 | 862 s |
| CCc1ccc(NC(=O)Cc2nnc3cc(-c4nc(CC)no4)ccn23)cc1 | 826 s |
| O=C(c1cccs1)N1CCC2(CC1)NC(=O)N(Cc1ccccc1Cl)C2=O | 821 s |
| Cc1nc2cccnc2n1CC1CCCN(S(=O)(=O)c2ccc3c(c2)CCC3)C1 (stereo unspecified) | 765 s |
| CC(C)Cc1ccc(S(=O)(=O)N2CCC3(CC2)CCC(O)(CN2CCCC2)CC3)cc1 | 786 s |
| O=C(NCc1ccc(Br)cc1)C1CCCN(c2ccnc(-c3ccc(F)cc3)n2)C1 (stereo unspecified) | 730 s |
| O=c1n(Cc2cccc(Br)c2)nc2ccc(S(=O)(=O)N3CCCC3)cn12 | 928 s |
| CCc1noc2nc(C)n(CC(=O)NCc3ccccc3OC)c(=O)c12 | 832 s |
| CCOc1ccccc1N1CCN(c2cc(C(=O)O)c3cc(NC(=O)C(C)C)ccc3n2)CC1 | 684 s |
| O=C(Nc1ccc(F)cc1)C1CCN(C(=O)c2ncn3c2COC(c2ccc(F)cc2)C3)CC1 (stereo unspecified) | 798 s |
| CCOc1ccc(NC(=O)Cn2nc3cc(-c4ccccc4)nc(C)n3c2=O)cc1 | 838 s |
| COc1ccc(NC(=O)Cn2c(C)cc(-c3nnc(-c4ccc(F)cc4)o3)c2C)cc1F | 962 s |
| O=C(NCc1cccc2ccccc12)NCC1CN(c2ccccc2)C(=O)O1 (stereo unspecified) | 781 s |
| Cc1noc(/C=C/c2ccc(S(=O)(=O)N3CCCCC3)s2)c1NC(=O)C1CC1 | 901 s |
| Cc1cc(NC(=O)CSc2nc3ccccc3s2)no1 | 810 s |
| CCOC(=O)c1cc(C)nc2c1c(=O)n(Cc1ccc(F)cc1)c(=O)n2C | 1070 s |
| Cc1cccc(-c2nc(Cn3ccnc3)no2)c1 | 600 s |
| CCCn1c(=O)sc2cc(S(=O)(=O)N3CCC(C(=O)NCc4ccc(C)cc4)CC3)ccc21 | 969 s |

| SMILES | RP-LC retention time |
| --- | --- |
| CCOC(=O)c1ccc(NS(=O)(=O)c2cc(-c3c(CC)noc3NC(C)=O)ccc2C)cc1 | 822 s |
| COC(=O)C1=CC(=O)N2CCN=C2S1 | 691 s |
| CCOc1ccccc1NC(=O)N1CCC(c2cnn(-c3ccccc3)c2)CC1 | 1040 s |
| Cc1cc(C)cc(N2CCC(NC(=O)Nc3ccc(C)cc3C)C2=O)c1 (stereo unspecified) | 938 s |
| CN(C)C(=O)c1ccc2c(c1)CCN2C(=O)C1CCCC1 | 720 s |
| Cc1cccc(NC(=O)N2CCC3(CC2)NC(=O)c2ccccc2O3)c1C | 775 s |
| COc1ccc(NC(=O)N2CCC(n3c(-c4ccco4)nc4cccnc43)C2)cc1 (stereo unspecified) | 708 s |
| COc1cccc(/C=N\NC(=O)C(C)SC(C)C(=O)N/N=C/c2cccc(OC)c2)c1 (stereo unspecified) | 769 s |
| O=C(Cc1cccs1)N1CCN(c2ccc(-c3ccco3)nn2)CC1 | 734 s |
| O=C(Nc1cnc(N2CCCCC2)nc1)c1cc(F)ccc1F | 952 s |
| Cn1c(=O)c2c(-c3cccc(Br)c3)n(Cc3ccco3)cc2n(C)c1=O | 971 s |
| Cc1ccc(NC(=O)N2C[C@H](c3nc(-c4ccncc4)no3)[C@@H](C)C2)cc1C | 858 s |
| CN(C(=O)Cn1nc2n(c1=O)CCCCC2)c1ccccc1 | 655 s |
| CC(C)c1cc(C(=O)N2CCOCC2)nc2ccnn12 | 637 s |
| COCCN(Cc1cccs1)C(=O)c1nnn(-c2ccccc2)c1-c1ccccn1 | 824 s |
| CCCn1c(=O)sc2cc(S(=O)(=O)N3CCC(C(=O)Nc4cccc(CC)c4)CC3)ccc21 | 969 s |
| COc1ccccc1-c1noc(-c2nc(-c3ccc4c(c3)OCO4)no2)n1 | 1120 s |
| CCC1Oc2ccc(S(=O)(=O)N3CCC(C(=O)N4CCc5ccccc54)CC3)cc2NC1=O (stereo unspecified) | 917 s |
| COc1ccc(-c2nnc(-c3cccc([N+](=O)[O-])c3)o2)cc1 | 898 s |
| O=C(c1ccoc1)N1CCC(c2nc(-c3ccccc3)no2)C1 (stereo unspecified) | 773 s |
| COc1ccc(NC(=O)Nc2c(-c3cccc(C)c3)nc3ccccn23)cc1Cl | 702 s |
| COc1ccc(-n2c(=O)c(C(=O)NC3CCCC3)c(O)c3cccnc32)cc1 | 1170 s |

| SMILES | RP-LC retention time |
| --- | --- |
| Cc1nc(-c2cnccn2)nc2c1CCC(=O)N2Cc1cccnc1 | 556 s |
| CCOC(=O)c1ccc(N2C=C(C#N)S(=O)(=O)c3ccccc32)cc1 | 917 s |
| CCOC(=O)C1CCN(C(=O)C2CCN(c3cncnc3N(C)C)CC2)CC1 | 603 s |
| O=C(NCC1CC1)C1CCN(c2nc3ccsc3c(=O)n2Cc2ccc(F)cc2)CC1 | 826 s |
| Cc1ccc(C)c(NC(=O)N2CC(n3cnnc3-c3ccccc3)C2)c1 | 712 s |
| CCCCNC(=O)C1c2cc(OC)c(OC)cc2C(=O)N(C)C1c1ccc(OC)c(OC)c1 (stereo unspecified) | 710 s |
| O=C(NCc1ccc(F)cc1F)C1CCN(C(=O)c2ncn3c2COC(c2ccccc2)C3)CC1 (stereo unspecified) | 784 s |
| COc1cccc(C(=O)NCCCc2ccc(N(C)C)cc2)c1OC | 574 s |
| COC(=O)C1=C(C)N(C(C)C)C(=O)C1(NC(=O)c1ccccc1OC)C(F)(F)F (stereo unspecified) | 1010 s |
| CCN1C(=O)c2cccnc2Sc2cc(C(=O)NCc3cccc(F)c3)ccc21 | 810 s |
| Cc1cccc(-c2noc(C3CCCN3S(=O)(=O)c3ccc(F)c(Cl)c3)n2)c1 (stereo unspecified) | 1220 s |
| COC(=O)c1ncn2c1C(=O)N(Cc1ccccc1)C(C)(C(=O)NC1CCCCCC1)C2 (stereo unspecified) | 777 s |
| COc1ccccc1CNc1c(-c2nc(C(C)C)no2)cnc2nc(C)ccc12 | 797 s |
| Cc1noc(C)c1CNC(=O)Cc1ccccc1Cl | 725 s |
| CCN1CCn2cc(S(=O)(=O)Nc3ccc(F)cc3F)cc2C1=O | 727 s |
| CN(C)c1cccc(C(=O)Nc2ccc(CC(=O)NC(C)(C)CO)cc2)c1 | 594 s |
| COc1cc(NS(=O)(=O)c2ccc(N)cc2)nc(OC)n1 | 680 s |
| Cc1cc(N2CCN(C(=O)C(C)Oc3cccc(Cl)c3)CC2)nc2nncn12 (stereo unspecified) | 644 s |
| O=[N+]([O-])c1ccccc1S(=O)(=O)Nc1ccc(N2CCOCC2)cc1 | 749 s |
| CCn1cc(C2=CCN(S(=O)(=O)c3cccc(F)c3)CC2)c2cccnc21 | 1020 s |
| CN(CCNC(=O)CCCn1c2ccccc2c2cnn(C)c(=O)c21)Cc1ccccc1 | 652 s |
| CC(=O)c1cccc(NS(=O)(=O)c2ccc(-c3c(C)noc3C)cc2)c1 | 805 s |
